What was measured:
Format in all cases: biochemical
JAK1 = JAK1 (Homo sapiens (Human), UniProt P23458); assay: Purified kinase assay (Z'-LYTE), JAK1; settings: Table 1; read-out: JAK1 IC50
Description: (§1) JAK and TYK2 tyrosine phosphorylation activity is measured using the Z′-LYTE™ Technology developed by Invitrogen Corporation (Carlsbad, Calif.). For JAK1, JAK2 and JAK3 the Z′-LYTE™ Kinase Assay Kit-Tyr6 Peptide (part number PV4122) was used. For TYK2 the Z′-LYTE™ Kinase Assay Kit-Tyr6 Peptide (part number PV3192) was used. The Z′-LYTE™ biochemical assay employs a fluorescence resonance energy transfer (FRET) coupled-enzyme format and is based on the differential sensitivity of phosphorylated and non-phosphorylated peptides to proteolytic cleavage. The assay uses a synthetic peptide substrate that is labeled with a donor fluorophore (coumarin) and an acceptor fluorophore (fluorescein) that make up a FRET pair. In the primary reaction (the Kinase Reaction), the kinase transfers the γ-phosphate of ATP to a single tyrosine residue on the substrate, while the presence of a kinase inhibitor in the primary reaction suppresses phosphorylation. In the secondary reaction (the Development Reaction), a site-specific protease (the Development Reagent) is added. The development buffer quenches the Kinase Reaction, while the protease recognizes and cleaves non-phosphorylated Z′-LYTE™ peptide substrate. Cleavage disrupts FRET between the donor and acceptor fluorophores on the non-phosphorylated substrate, while uncleaved, phosphorylated substrate maintains FRET.
(§2) To test the ability of candidate molecules to inhibit JAK tyrosine phosphorylation activity, molecules are reconstituted in 100% DMSO and serially diluted 1:10 in polypropylene v-bottom microtiter plates. The candidate molecules are then diluted 1:25 into kinase buffer and 2.5 μl transferred into duplicate wells of a 384 well low volume black microtiter assay plate (Corning, USA). The final DMSO concentration in the assay is 1%. The kinase reaction contains 2.5 μl of a candidate molecule, 5 μl of catalytic domain recombinant Kinase enzyme+Tyr peptide substrate (Invitrogen, CA) and ATP (Invitrogen, CA). The kinase reaction is allowed to proceed for 1 hour at room temperature. The protease reaction is initiated by the addition of Development Reagent (Invitrogen, CA). After 1 hour incubation at room temperature the fluorescence is measured using a FlexStation plate reader (Molecular Devices, Sunnyvale, Calif.). The reader settings used are as follows: Fluorescence mode, endpoint, top read, excitation 400 nm, emission 445 nm and 520 nm, Auto Cutoff 435 nm and 515 nm, PMT sensitivity high, 6 reads per well Inhibition of JAK activity is calculated as the percent phosphorylation of substrate in the presence of inhibitor compared to the percent phosphorylation of substrate in the absence of inhibitor. IC50's were derived using Xlfit 4.3 (IDBS, UK), 4 parameter logistic model 205: Y=(A+((B−A)/(1+((C/x)^D)))).

JAK2 = JAK2 (Homo sapiens (Human), UniProt O60674); assay: Purified kinase assay (Z'-LYTE), JAK2; settings: Table 1; read-out: JAK2 IC50
Description: as §1, §2

JAK3 = JAK3 (Homo sapiens (Human), UniProt P52333); assay: Purified kinase assay (Z'-LYTE), JAK3; settings: Table 1; read-out: JAK3 IC50
Description: as §1, §2

Sequence of JAK3 (P52333 822-1111): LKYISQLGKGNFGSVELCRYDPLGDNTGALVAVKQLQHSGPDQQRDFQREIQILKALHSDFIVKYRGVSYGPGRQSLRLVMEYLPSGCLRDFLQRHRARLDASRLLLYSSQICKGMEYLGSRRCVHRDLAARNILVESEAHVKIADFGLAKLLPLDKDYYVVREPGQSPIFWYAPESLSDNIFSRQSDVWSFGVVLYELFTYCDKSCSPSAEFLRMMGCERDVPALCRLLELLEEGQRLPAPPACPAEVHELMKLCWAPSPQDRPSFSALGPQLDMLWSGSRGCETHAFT
Sequence of JAK1 (P23458 875-1153): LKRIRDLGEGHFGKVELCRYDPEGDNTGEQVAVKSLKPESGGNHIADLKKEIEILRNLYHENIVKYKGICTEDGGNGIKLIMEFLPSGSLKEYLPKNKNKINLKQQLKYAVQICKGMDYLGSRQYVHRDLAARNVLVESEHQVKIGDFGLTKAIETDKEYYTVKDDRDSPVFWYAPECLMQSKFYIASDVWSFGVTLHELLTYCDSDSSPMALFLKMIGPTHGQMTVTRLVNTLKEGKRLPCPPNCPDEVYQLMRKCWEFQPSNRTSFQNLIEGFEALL
Sequence of JAK2 (O60674 849-1124): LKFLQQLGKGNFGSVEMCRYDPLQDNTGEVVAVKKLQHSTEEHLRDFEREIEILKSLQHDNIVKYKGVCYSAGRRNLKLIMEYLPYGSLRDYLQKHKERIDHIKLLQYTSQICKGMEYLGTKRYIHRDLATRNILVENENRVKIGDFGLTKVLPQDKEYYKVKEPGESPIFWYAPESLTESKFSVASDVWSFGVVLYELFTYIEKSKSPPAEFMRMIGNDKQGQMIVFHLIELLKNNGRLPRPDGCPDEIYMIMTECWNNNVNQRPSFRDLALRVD

Row | SMILES | IC50 (JAK1) | IC50 (JAK2) | IC50 (JAK3)
1 | CS(=O)(=O)CCc1ccc(Nc2cc(NCc3cccc(F)c3)c(C(N)=O)nn2)cc1 [Compound 108] | > 1000 nM | 100 to 1000 nM | 10 to 100 nM
2 | NC(=O)c1nnc(Nc2ccc(N3CCOCC3)cc2)cc1NCc1cccc(F)c1F [Compound 38] | > 1000 nM | 100 to 1000 nM | 10 to 100 nM
3 | CCC(=O)N1CCC(c2ccc(Nc3cc(NCc4cccc(F)c4)c(C(N)=O)nn3)cc2)CC1 [Compound 26] | > 1000 nM | > 1000 nM | 10 to 100 nM
4 | CS(=O)(=O)c1ccc(Nc2cc(NCc3cccc(F)c3)c(C(N)=O)nn2)cc1 [Compound 84] | > 1000 nM | > 1000 nM | 100 to 1000 nM
5 | COC(=O)N(C)c1ccc(Nc2cc(NCc3cccc(F)c3F)c(C(N)=O)nn2)cc1 [Compound 45] | > 1000 nM | > 1000 nM | 10 to 100 nM
6 | CC(c1ccc(Nc2cc(NCc3cccc(F)c3)c(C(N)=O)nn2)cc1)S(C)(=O)=O (stereo not drawn) [Compound 96] | 100 to 1000 nM | 100 to 1000 nM | 10 to 100 nM
7 | CC(=O)N1CCN(c2ccc(Nc3cc(NC4CCN(c5ccc(C#N)cn5)CC4)c(C(N)=O)nn3)cc2)CC1 [Compound 92] | 10 to 100 nM | 10 to 100 nM | 10 to 100 nM
8 | Cc1cc(Nc2cc(NCc3cccc(F)c3)c(C(N)=O)nn2)ccc1N1CCOCC1 [Compound 54] | > 1000 nM | > 1000 nM | 10 to 100 nM
9 | CC(C)n1cc(Nc2cc(NCc3cccc(F)c3F)c(C(N)=O)nn2)cn1 [Compound 114] | 100 to 1000 nM | 100 to 1000 nM | 10 to 100 nM
10 | CC(C)CNc1cc(Nc2ccc(N3CCNCC3)cc2)nnc1C(N)=O [Compound 15] | > 1000 nM | > 1000 nM | 100 to 1000 nM
11 | NC(=O)c1nnc(Nc2cnn(CC3CCOCC3)c2)cc1NCc1cccc2ccsc12 [Compound 121] | 100 to 1000 nM | 10 to 100 nM | 1 to 10 nM
12 | CC(=O)N1CCN(c2ccc(Nc3cc(NC(C)C)c(C(N)=O)nn3)cc2)CC1 [Compound 9] | > 1000 nM | > 1000 nM | > 1000 nM
13 | NC(=O)c1nnc(Nc2ccc(N3CCOCC3)cc2)cc1NCc1cccc(F)c1 [Compound 35] | > 1000 nM | 100 to 1000 nM | 10 to 100 nM
14 | NC(=O)c1nnc(Nc2cccc(N3CCOCC3)n2)cc1NCc1cccc(F)c1 [Compound 62] | > 1000 nM | > 1000 nM | > 1000 nM
15 | NC(=O)c1nnc(Nc2ccc(N3CCS(=O)(=O)CC3)cc2)cc1NCc1cccc(F)c1 [Compound 94] | > 1000 nM | 100 to 1000 nM | 1 to 10 nM
16 | CC(=O)N1CCN(c2ccc(Nc3cc(NC4CCCC4)c(C(N)=O)nn3)cc2)CC1 [Compound 10] | 100 to 1000 nM | 100 to 1000 nM | 100 to 1000 nM
17 | NC(=O)c1nnc(Nc2ccc(C(=O)N3CCCC3)cc2)cc1NCc1cc(F)cc(F)c1 [Compound 82] | 100 to 1000 nM | 100 to 1000 nM | 1 to 10 nM
18 | CS(=O)(=O)Cc1ccc(Nc2cc(NC3CCN(c4ccc(C#N)cn4)CC3)c(C(N)=O)nn2)cc1 [Compound 93] | 10 to 100 nM | 10 to 100 nM | 10 to 100 nM
19 | CS(=O)(=O)Cc1ccc(Nc2cc(NCc3cccc4ccsc34)c(C(N)=O)nn2)cc1 [Compound 100] | 100 to 1000 nM | 100 to 1000 nM | 1 to 10 nM
20 | NC(=O)c1nnc(Nc2cnccn2)cc1NCc1cccc(-n2ccnc2)c1 [Compound 111] | > 1000 nM | > 1000 nM | 100 to 1000 nM
21 | NC(=O)c1nnc(Nc2ccc(C(=O)N3CCCC3)cc2)cc1NCc1cccc(F)c1 [Compound 52] | > 1000 nM | 100 to 1000 nM | 10 to 100 nM
22 | CN(C)C(=O)C1CCN(c2ccc(Nc3cc(NCc4cccc(F)c4)c(C(N)=O)nn3)cc2)CC1 [Compound 90] | > 1000 nM | 100 to 1000 nM | 10 to 100 nM
23 | COc1cc(Nc2cc(NCc3cccc(F)c3)c(C(N)=O)nn2)ccc1C(=O)N1CCCC1 [Compound 53] | > 1000 nM | 100 to 1000 nM | 10 to 100 nM

Row | SMILES | IC50 (JAK1) | IC50 (JAK2) | IC50 (JAK3)
24 | NC(=O)c1nnc(Nc2ccc(N3CCNCC3)nc2)cc1NCc1cccc(F)c1 [Compound 50] | > 1000 nM | > 1000 nM | 100 to 1000 nM
25 | CC(=O)N1CCC(Cn2cc(Nc3cc(NCc4cccc(F)c4)c(C(N)=O)nn3)cn2)CC1 [Compound 127] | > 1000 nM | 100 to 1000 nM | 10 to 100 nM
26 | NC(=O)c1nnc(Nc2cc(F)c(N3CCOCC3)c(F)c2)cc1NCc1cccc(F)c1F [Compound 41] | > 1000 nM | > 1000 nM | > 1000 nM
27 | CC(C)n1cc(Nc2cc(NCc3cccc4ccsc34)c(C(N)=O)nn2)cn1 [Compound 112] | 100 to 1000 nM | 10 to 100 nM | 1 to 10 nM
28 | Cc1cc(Nc2cc(NCc3cccc(F)c3F)c(C(N)=O)nn2)ccc1N1CCOCC1 [Compound 40] | > 1000 nM | > 1000 nM | 10 to 100 nM
29 | CCn1cc(Nc2cc(NCc3cccc(F)c3)c(C(N)=O)nn2)cn1 [Compound 123] | > 1000 nM | 100 to 1000 nM | 10 to 100 nM
30 | NC(=O)c1nnc(Nc2ccc(N3CCOCC3)cc2)cc1NCc1cc(F)cc(F)c1 [Compound 36] | > 1000 nM | 100 to 1000 nM | 10 to 100 nM
31 | NC(=O)c1nnc(Nc2ccc(N3CCNCC3)cc2)cc1NC1CCCCC1 [Compound 11, 4-(cyclohexylamino)-6-((4-(piperazin-1-yl)phenyl)amino)pyridazine-3-carboxamide] | > 1000 nM | 100 to 1000 nM | 100 to 1000 nM
32 | CC(C)Nc1cc(Nc2ccc(N3CCNCC3)cc2)nnc1C(N)=O [Compound 12] | > 1000 nM | > 1000 nM | > 1000 nM
33 | CS(=O)(=O)Cc1ccc(Nc2cc(NCc3c(F)cccc3F)c(C(N)=O)nn2)cc1 [Compound 87] | 100 to 1000 nM | 100 to 1000 nM | 1 to 10 nM
34 | CC(=O)N1CCN(c2ccc(Nc3cc(NCc4cccnc4)c(C(N)=O)nn3)cc2)CC1 [Compound 79] | > 1000 nM | > 1000 nM | 100 to 1000 nM
35 | CC(=O)N1CCN(c2ccc(Nc3cc(NCc4cc(-c5cccnc5)ccc4F)c(C(N)=O)nn3)cc2)CC1 [Compound 104] | > 1000 nM | 100 to 1000 nM | 10 to 100 nM
36 | CCn1cc(Nc2cc(NCc3cccc(F)c3F)c(C(N)=O)nn2)cn1 [Compound 120] | > 1000 nM | 100 to 1000 nM | 10 to 100 nM
37 | NC(=O)c1nnc(Nc2cccc(CN3CCOCC3)c2)cc1NCc1cccc(F)c1 [Compound 48] | > 1000 nM | 100 to 1000 nM | 10 to 100 nM
38 | CC(=O)N1CCN(c2ccc(Nc3cc(NCc4ccccn4)c(C(N)=O)nn3)cc2)CC1 [Compound 78] | > 1000 nM | > 1000 nM | 100 to 1000 nM
39 | NC(=O)c1nnc(Nc2ccc(N3CCOCC3)cn2)cc1NCc1cccc(F)c1 [Compound 64] | > 1000 nM | 10 to 100 nM | 1 to 10 nM
40 | CC(=O)N1CCN(c2ccc(Nc3cc(NCc4cccc(-c5ccncc5)c4)c(C(N)=O)nn3)cc2)CC1 [Compound 69] | > 1000 nM | > 1000 nM | 10 to 100 nM
41 | CC(=O)N1CCC(Cn2cc(Nc3cc(NCc4cccc(F)c4F)c(C(N)=O)nn3)cn2)CC1 [Compound 126] | > 1000 nM | 100 to 1000 nM | 1 to 10 nM
42 | CCC(=O)N1CCC(Cn2cc(Nc3cc(NCc4cccc5ccsc45)c(C(N)=O)nn3)cn2)CC1 [Compound 128] | 100 to 1000 nM | 10 to 100 nM | 1 to 10 nM
43 | CC(=O)N1CCN(c2ccc(Nc3cc(NCc4cccc(-n5ccnc5)c4)c(C(N)=O)nn3)cc2)CC1 [Compound 68] | > 1000 nM | > 1000 nM | 10 to 100 nM
44 | CC(=O)N1CCN(c2ccc(Nc3cc(NCc4cccc(Cl)c4)c(C(N)=O)nn3)cc2)CC1 [Compound 46] | 100 to 1000 nM | 100 to 1000 nM | 10 to 100 nM
45 | CC(=O)N1CCN(c2ccc(Nc3cc(NC4CCCCC4)c(C(N)=O)nn3)cc2)CC1 [Compound 8, 6-((4-(4-acetylpiperazin-1-yl)phenyl)amino)-4-(cyclohexylamino)pyridazine-3-carboxamide] | 100 to 1000 nM | 100 to 1000 nM | 10 to 100 nM

From US9834548B2, “Pyridazine compounds as JAK inhibitors” (Portola Pharmaceuticals, Inc., priority 2014, dated 2017)
